“And” between values parts separate entries of the source, which are not always exact repeats. Equal entries are not always repeated. Inconclusive results and toxic doses are left out. Rule for the calls: active = survival T/C of 150% or more; inactive = T/C below 125% in these data.
Tested on: P388 leukemia ip, CD2F1 mice, survival T/C
Assay: NCI In Vivo Anticancer Drug Screen. Data for tumor model P388 Leukemia (intraperitoneal) in CD2F1 (CDF1) mice
Details: endpoint: median survival time, higher = longer survival
How it was run: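 Mice carrying the transplanted tumor received test compound or vehicle. Survival was recorded in each group, and the value is the treated-group measurement divided by that of the vehicle-treated control group.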

[1] = dose: 50.0 mg/kg/injection, schedule: Q01DX005 (ip), vehicle: Klucel (hydroxypropylcellulose) (HPC)
[2] = dose: 100.0 mg/kg/injection, schedule: Q01DX005 (ip), vehicle: Klucel (hydroxypropylcellulose) (HPC)
[3] = dose: 200.0 mg/kg/injection, schedule: Q01DX005 (ip), vehicle: Klucel (hydroxypropylcellulose) (HPC)
[4] = dose: 60.0 mg/kg/injection, schedule: Q01DX005 (ip), vehicle: saline
[5] = dose: 120.0 mg/kg/injection, schedule: Q01DX005 (ip), vehicle: saline
[6] = dose: 240.0 mg/kg/injection, schedule: Q01DX005 (ip), vehicle: saline
[7] = dose: 25.0 mg/kg/injection, schedule: Q01DX005 (ip), vehicle: saline with Tween-80
[8] = dose: 50.0 mg/kg/injection, schedule: Q01DX005 (ip), vehicle: saline with Tween-80
[9] = dose: 100.0 mg/kg/injection, schedule: Q01DX005 (ip), vehicle: saline with Tween-80
[10] = dose: 200.0 mg/kg/injection, schedule: Q01DX005 (ip), vehicle: saline with Tween-80
[11] = dose: 50.0 mg/kg/injection, schedule: Q01DX009 (ip), vehicle: saline with Tween-80
[12] = dose: 100.0 mg/kg/injection, schedule: Q01DX009 (ip), vehicle: saline with Tween-80
[13] = dose: 50.0 mg/kg/injection, schedule: Q01DX009 (ip), vehicle: saline
[14] = dose: 100.0 mg/kg/injection, schedule: Q01DX009 (ip), vehicle: saline
[15] = dose: 200.0 mg/kg/injection, schedule: Q01DX009 (ip), vehicle: saline with Tween-80
[16] = dose: 12.5 mg/kg/injection, schedule: Q01DX009 (ip), vehicle: Klucel (hydroxypropylcellulose) (HPC)

Measured: T/C

Cn1c(/C=[N+](/C)[O-])cnc1[N+](=O)[O-]
inactive: dose: 50.0 mg/kg/injection, schedule: Q01DX009 (ip), vehicle: suspension in saline 102 % of control | dose: 100.0 mg/kg/injection, schedule: Q01DX009 (ip), vehicle: suspension in saline 103 % of control | dose: 200.0 mg/kg/injection, schedule: Q01DX009 (ip), vehicle: suspension in saline 108 % of control

COc1ccc(N(CN2C(=O)CCC2=O)CS(=O)(=O)c2ccc(Cl)cc2)cc1
inactive: dose: 60.0 mg/kg/injection, schedule: Q01DX005 (ip), vehicle: Klucel (hydroxypropylcellulose) (HPC) 97 % of control | dose: 120.0 mg/kg/injection, schedule: Q01DX005 (ip), vehicle: Klucel (hydroxypropylcellulose) (HPC) 90 % of control | dose: 240.0 mg/kg/injection, schedule: Q01DX005 (ip), vehicle: Klucel (hydroxypropylcellulose) (HPC) 100 % of control

O=C(O)c1ccc2ncc(-c3ccccc3)nc2c1
inactive: [1] 100 % of control | [2] 100 % of control | [3] 95 % of control

O=c1[nH]c(=O)n(C2OC(CO)C(O)C2O)c(=O)[nH]1 (stereo not drawn)
inactive: [4] 100 % of control | [5] 95 % of control | [6] 96 % of control

C[C@]12CC[C@H](O)CC1=CC[C@@H]1[C@@H]2CC[C@]2(C)C(=O)CC[C@@H]12
inactive: [7] 94 % of control | [8] 90 % of control | [9] 91 % of control | [10] 90 % of control

O=S(=O)(OC1=C/[C@H](S(=O)(=O)c2ccccc2)/C=C\[C@H](S(=O)(=O)c2ccccc2)/C=C\1)c1ccccc1
inactive: dose: 60.0 mg/kg/injection, schedule: Q01DX005 (ip), vehicle: saline with Tween-80 97 % of control | dose: 120.0 mg/kg/injection, schedule: Q01DX005 (ip), vehicle: saline with Tween-80 93 % of control | dose: 240.0 mg/kg/injection, schedule: Q01DX005 (ip), vehicle: saline with Tween-80 91 % of control

O=C(O)CNCc1ccc(F)cc1
inactive: dose: 100.0 mg/kg/injection, schedule: Q04DX003 (ip), vehicle: saline 98 % of control | dose: 200.0 mg/kg/injection, schedule: Q04DX003 (ip), vehicle: saline 103 % of control | dose: 400.0 mg/kg/injection, schedule: Q04DX003 (ip), vehicle: saline 102 % of control | dose: 600.0 mg/kg/injection, schedule: Q04DX003 (ip), vehicle: saline 100 % of control

Cc1cc(=O)c2c(N(C)C)cccc2[nH]1
inactive: dose: 50.0 mg/kg/injection, schedule: Q01DX009 (ip), vehicle: acid diluted with saline 104 % of control | dose: 100.0 mg/kg/injection, schedule: Q01DX009 (ip), vehicle: acid diluted with saline 91 % of control | dose: 200.0 mg/kg/injection, schedule: Q01DX009 (ip), vehicle: acid diluted with saline 96 % of control

Cc1ccc(N)c(C(O)(C(F)(F)F)C(F)(F)F)c1
inactive: [11] 99 % of control | [12] 101 % of control

CCCCCCCCCCCCCCCCONc1ccnc(=O)[nH]1
inactive: dose: 37.5 mg/kg/injection, schedule: Q01DX001 (ip), vehicle: Klucel (hydroxypropylcellulose) (HPC) 91 % of control | dose: 75.0 mg/kg/injection, schedule: Q01DX001 (ip), vehicle: Klucel (hydroxypropylcellulose) (HPC) 91 % of control

Nc1ncnc2c1nc(F)n2C1OC(CO)C(O)C1O (stereo not drawn)
inactive: dose: 6.25 mg/kg/injection, schedule: Q01DX005 (ip), vehicle: saline 107 % of control | dose: 12.5 mg/kg/injection, schedule: Q01DX005 (ip), vehicle: saline 108 % of control | dose: 25.0 mg/kg/injection, schedule: Q01DX005 (ip), vehicle: saline 108 % of control

CC(C)NCC(O)c1cc(Br)c(Br)s1 (stereo not drawn)
inactive: [13] 98 % of control | [14] 102 % of control

O=C1CC(=O)C(C(=O)c2ccccc2)N1 (stereo not drawn)
inactive: [8] 96 % of control | [9] 97 % of control | [10] 94 % of control

CS(=O)(=O)CCS(C)(=O)=O
inactive: [11] 102 % of control | [15] 89 % of control

Cc1cccc(C)c1NC(=O)/C(Cl)=C1/Sc2ccccc2NC1=O
inactive: [8] 105 % of control | [9] 97 % of control | [10] 88 % of control

CCOC(=O)CCN(C)C1CCCCC1C(=O)OCC (stereo not drawn)
inactive: dose: 25.0 mg/kg/injection, schedule: Q01DX009 (ip), vehicle: saline 100 % of control | [13] 101 % of control | [14] 107 % of control

CC(=O)OC1C(C(O)CO)OC2OC(C)(C)OC21 (stereo not drawn)
inactive: [4] 100 % of control | [5] 105 % of control | [6] 96 % of control

CCN(CC)Cc1cc(N2C(=O)CC3(CCCC3)C2=O)ccc1O
inactive: dose: 100.0 mg/kg/injection, schedule: Q04DX003 (ip), vehicle: Klucel (hydroxypropylcellulose) (HPC) 100 % of control | dose: 200.0 mg/kg/injection, schedule: Q04DX003 (ip), vehicle: Klucel (hydroxypropylcellulose) (HPC) 102 % of control | dose: 400.0 mg/kg/injection, schedule: Q04DX003 (ip), vehicle: Klucel (hydroxypropylcellulose) (HPC) 105 % of control

Cc1coc2c1C(OC(=O)C(C)C)C1(C)C(C)CCC(O)C1C2=O (stereo not drawn)
inactive: dose: 1.56 mg/kg/injection, schedule: Q01DX009 (ip), vehicle: saline with Tween-80 100 % of control | dose: 3.13 mg/kg/injection, schedule: Q01DX009 (ip), vehicle: saline with Tween-80 96 % of control | dose: 6.25 mg/kg/injection, schedule: Q01DX009 (ip), vehicle: saline with Tween-80 93 % of control | [16] 94 % of control | dose: 12.5 mg/kg/injection, schedule: Q01DX009 (ip), vehicle: saline with Tween-80 109 % of control | dose: 50.0 mg/kg/injection, schedule: Q01DX009 (ip), vehicle: Klucel (hydroxypropylcellulose) (HPC) 97 % of control | dose: 100.0 mg/kg/injection, schedule: Q01DX009 (ip), vehicle: Klucel (hydroxypropylcellulose) (HPC) 114 % of control

c1ccc(NN=Nc2ncnc3nc[nH]c23)cc1
inactive: dose: 12.5 mg/kg/injection, schedule: Q01DX005 (ip), vehicle: saline with Tween-80 106 % of control | [7] 111 % of control | [8] 102 % of control and 115 % of control

CC1(C)/C(=C/c2ccccc2)C(=O)c2ccccc21
inactive: [12] 90 % of control | [15] 100 % of control | dose: 400.0 mg/kg/injection, schedule: Q01DX009 (ip), vehicle: saline with Tween-80 100 % of control

O=C(c1ccc2cc(Cl)c(Cl)cc2c1)C(Cl)Cl
inactive: dose: 1.56 mg/kg/injection, schedule: Q01DX009 (ip), vehicle: Klucel (hydroxypropylcellulose) (HPC) 116 % of control | dose: 3.12 mg/kg/injection, schedule: Q01DX009 (ip), vehicle: Klucel (hydroxypropylcellulose) (HPC) 104 % of control | dose: 6.25 mg/kg/injection, schedule: Q01DX009 (ip), vehicle: Klucel (hydroxypropylcellulose) (HPC) 101 % of control and 97 % of control | [16] 88 % of control

O=S1(=O)N=C(Sc2nc3ccccc3o2)c2ccccc21
inactive: dose: 100.0 mg/kg/injection, schedule: Q04DX002 (ip), vehicle: saline with Tween-80 102 % of control | dose: 200.0 mg/kg/injection, schedule: Q04DX002 (ip), vehicle: saline with Tween-80 107 % of control | dose: 400.0 mg/kg/injection, schedule: Q04DX002 (ip), vehicle: saline with Tween-80 115 % of control

C=C1C(C)C2C(Cc3ccccc3)NC(=O)C23OC(=O)/C=C\CC(=O)CCC(C)C/C=C/C3C1O (stereo not drawn)
inactive: dose: 5.0 mg/kg/injection, schedule: Q01DX009 (ip), vehicle: Klucel (hydroxypropylcellulose) (HPC) 110 % of control | dose: 10.0 mg/kg/injection, schedule: Q01DX009 (ip), vehicle: Klucel (hydroxypropylcellulose) (HPC) 118 % of control

CN(NC(=O)C(=O)NCc1ccco1)C(=O)Nc1ccccc1
inactive: [1] 100 % of control | [2] 99 % of control | [3] 99 % of control

O=C1Cc2ccccc2N1C(=O)c1ccccc1Br
inactive: dose: 100.0 mg/kg/injection, schedule: Q01DX001 (ip), vehicle: Klucel (hydroxypropylcellulose) (HPC) 106 % of control | dose: 200.0 mg/kg/injection, schedule: Q01DX001 (ip), vehicle: Klucel (hydroxypropylcellulose) (HPC) 98 % of control | dose: 400.0 mg/kg/injection, schedule: Q01DX001 (ip), vehicle: Klucel (hydroxypropylcellulose) (HPC) 90 % of control

Cc1ccc(NCn2c(=S)sc3ccccc32)cc1
inactive: [1] 89 % of control | [2] 88 % of control | [3] 98 % of control

Cc1ccc([Si]23OC(C)CN(CC(C)O2)CC(C)O3)cc1 (stereo not drawn)
inactive: [8] 100 % of control | [9] 109 % of control | [10] 100 % of control

Cc1ccc2ccc(CC(O)(c3ccccc3)c3ccccc3)nc2c1
inactive: [11] 100 % of control | [12] 88 % of control
